# Results as given in publication PMC6941124 (International Journal of Molecular Sciences, 2019).
# Substitutions are numbered along the chain they refer to.
# Tests used:
# Assay type in all cases: biochemical
# Details in all cases: inhibitor at IC50 concentration previously determined for CK1δ WT; DMSO control = 100%; adjusted to WT = 50%; mean ± SD
# CK1δ R299Q = molecular target: T1, CK1δ R299Q (Homo sapiens, UniProt P48730, R299Q); assay: in vitro kinase assay, CK1δ mutant R299Q
# T1 sequence (P48730 1-415 R299Q): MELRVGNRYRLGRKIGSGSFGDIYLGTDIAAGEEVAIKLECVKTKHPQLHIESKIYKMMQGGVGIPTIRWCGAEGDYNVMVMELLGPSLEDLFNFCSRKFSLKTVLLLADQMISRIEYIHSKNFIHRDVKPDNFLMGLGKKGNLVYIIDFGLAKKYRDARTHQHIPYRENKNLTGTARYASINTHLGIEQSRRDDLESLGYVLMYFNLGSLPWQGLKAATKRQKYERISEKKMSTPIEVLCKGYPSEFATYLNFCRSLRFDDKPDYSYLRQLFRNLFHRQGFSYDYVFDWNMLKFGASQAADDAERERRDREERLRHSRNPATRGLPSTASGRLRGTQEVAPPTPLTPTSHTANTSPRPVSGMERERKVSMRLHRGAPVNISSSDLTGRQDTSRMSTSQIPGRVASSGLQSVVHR
# Description: (§1) Overexpression and purification of GST-CK1δ fusion proteins, either wild type or mutant, were performed as described previously.
# (§2) Each kinase assay reaction was performed in kinase buffer (25 mM Tris-HCl (pH 7.5), 10 μM ATP, 10 mM MgCl2, 100 μM EDTA) in presence of purified GST-CK1δ kinase as source of enzyme (either wild type or mutant), an assay-specific substrate (α-casein, GST-p53^1−64, or GST-β-catenin^1−181), and radiolabeled ATP (2 μCi [γ-^32P]-ATP). For performing Michaelis–Menten analysis increasing substrate concentrations were used (α-casein: 0.39−25 μM; GST-p53^1−64: 0.09−1.87 μM; GST-β-catenin^1−181: 0.07−1.32 μM). For biological evaluation of small molecule inhibitors (SMIs), each inhibitor compound was either tested at 10 μM concentration for initial screening or by using a dilution series (0.005−10 µM) for determination of IC50 values. DMSO was used as control. Reactions were incubated for 30 min at 30 °C and reactions were stopped using 5x SDS-loading buffer (250 mM Tris-HCl [pH 6.8], 25% (v/v) β-mercaptoethanol (MSH), 50% (v/v) glycerol, 10% (w/v) SDS, 0.5% (w/v) bromphenol blue). Subsequently, samples were separated by SDS-PAGE using 12.5% acrylamide gels, stained with Coomassie, and phosphorylated substrates were visualized on X-ray film. Incorporation of radiolabeled phosphate was quantified by scintillation counting of Coomassie-stained substrate bands. Defined dilutions of the reaction master mix were counted as well in order to convert results obtained as counts per minute (CPM) to units of transferred phosphate in pmol/min. Michaelis–Menten analysis was performed using GraphPad Prism 6 (GraphPad Software, San Diego, CA, USA).
# CK1δ R115H = molecular target: T2, CK1δ R115H (Homo sapiens, UniProt P48730, R115H); assay: in vitro kinase assay, CK1δ mutant R115H
# T2 sequence (P48730 1-415 R115H): T1 sequence (P48730 1-415 R299Q) with R115H, Q299R
# Description: as §1, §2
# CK1δ R127L = molecular target: T3, CK1δ R127L (Homo sapiens, UniProt P48730, R127L); assay: in vitro kinase assay, CK1δ mutant R127L
# T3 sequence (P48730 1-415 R127L): T1 sequence (P48730 1-415 R299Q) with R127L, Q299R
# Description: as §1, §2
# CK1δ R168H = molecular target: T4, CK1δ R168H (Homo sapiens, UniProt P48730, R168H); assay: in vitro kinase assay, CK1δ mutant R168H
# T4 sequence (P48730 1-415 R168H): T1 sequence (P48730 1-415 R299Q) with R168H, Q299R
# Description: as §1, §2
# CK1δ Q399* = molecular target: T5, CK1δ Q399* (Homo sapiens, UniProt P48730); assay: in vitro kinase assay, CK1δ mutant Q399*
# T5 sequence (P48730 1-398): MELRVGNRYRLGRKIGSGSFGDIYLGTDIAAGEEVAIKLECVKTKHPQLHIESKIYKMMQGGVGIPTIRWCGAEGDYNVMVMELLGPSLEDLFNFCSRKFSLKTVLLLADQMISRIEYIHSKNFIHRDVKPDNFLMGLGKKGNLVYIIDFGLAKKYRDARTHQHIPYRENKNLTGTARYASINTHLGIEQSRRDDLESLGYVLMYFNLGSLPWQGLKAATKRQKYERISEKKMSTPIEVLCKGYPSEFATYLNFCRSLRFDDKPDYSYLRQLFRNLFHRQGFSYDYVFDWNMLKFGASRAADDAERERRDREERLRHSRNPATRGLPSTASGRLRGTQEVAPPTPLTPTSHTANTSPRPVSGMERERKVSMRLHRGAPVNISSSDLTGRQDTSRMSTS
# Description: as §1, §2
Residual activity of CK1δ R299Q (CK1δ R299Q) [%],Residual activity of CK1δ R115H (CK1δ R115H) [%],Residual activity of CK1δ R127L (CK1δ R127L) [%],Residual activity of CK1δ R168H (CK1δ R168H) [%],Residual activity of CK1δ Q399* (CK1δ Q399*) [%],Structure (SMILES)
64 ± 22,36 ± 10,50 ± 11,30 ± 16,75 ± 30,O=C(Nc1nc2ccc(C(F)(F)F)cc2[nH]1)c1csc(NC(=O)c2ccccc2OC(F)(F)F)n1 [Bischof-5]
36 ± 20,71 ± 34,42 ± 9,50 ± 9,53 ± 27,Cc1ccc2nc(NC(=O)CSc3nc4c(c(=O)n3-c3ccccc3)SCC4)sc2c1 [IWP-2]
91 ± 60,46 ± 5,48 ± 10,61 ± 19,96 ± 79,COc1ccccc1-n1c(SCC(=O)Nc2nc3ccc(C)cc3s2)nc2c(c1=O)SCC2 [IWP-4]
